Test results taken from ChEMBL document CHEMBL4619712, “Double-component diazeniumdiolate derivatives as anti-cancer agents” (Bioorg Med Chem, 2020).
Active and inactive are the calls of the source. No cut-off for these calls is given here.

Tests used:
CCRF-CEM [1] = assay: Induction of apoptosis in human CCRF-CEM cells assessed as late apoptotic cells at 8 uM after 48 hrs by Annexin V/propidium iodide staining based flow cytometry (reference value: 8.60%); format: functional
CCRF-CEM [2] = assay: Cell cycle arrest in human CCRF-CEM cells assessed as accumulation of cells at sub G1 phase at 8 uM after 24 hrs by RNAse/propidium iodide staining based flow cytometry (reference value: 0.1%); format: functional
CCRF-CEM [3] = assay: Induction of apoptosis in human CCRF-CEM cells assessed as decrease in Bcl-2 level at 8 uM by Western blot analysis; format: functional, cell-based; conditions: TDE = time-dependent effect
CCRF-CEM [4] = assay: Cell cycle arrest in human CCRF-CEM cells assessed as accumulation of cells at G1/G0 phase at 8 uM after 24 hrs by RNAse/propidium iodide staining based flow cytometry (reference value: 28.3%); format: functional
CCRF-CEM [5] = assay: Induction of apoptosis in human CCRF-CEM cells assessed as viable cells at 8 uM after 24 hrs by Annexin V/propidium iodide staining based flow cytometry (reference value: 90.4%); format: functional; conditions: read-out: Activity
CCRF-CEM [6] = assay: Induction of apoptosis in human CCRF-CEM cells assessed as late apoptotic cells at 8 uM after 24 hrs by Annexin V/propidium iodide staining based flow cytometry (reference value: 8.60%); format: functional
CCRF-CEM [7] = assay: Induction of apoptosis in human CCRF-CEM cells assessed as early apoptotic cells at 8 uM after 24 hrs by Annexin V/propidium iodide staining based flow cytometry (reference value: 0.87%); format: functional
CCRF-CEM [8] = assay: Induction of apoptosis in human CCRF-CEM cells assessed as late apoptotic cells at 8 uM after 72 hrs by Annexin V/propidium iodide staining based flow cytometry (reference value: 8.60%); format: functional
CCRF-CEM [9] = assay: Induction of apoptosis in human CCRF-CEM cells assessed as late apoptotic cells at 16 uM after 72 hrs by Annexin V/propidium iodide staining based flow cytometry (reference value: 8.60%); format: functional
CCRF-CEM [10] = assay: Cell cycle arrest in human CCRF-CEM cells assessed as accumulation of cells at S phase at 8 uM after 72 hrs by RNAse/propidium iodide staining based flow cytometry (reference value: 46%); format: functional
CCRF-CEM [11] = assay: Cell cycle arrest in human CCRF-CEM cells assessed as accumulation of cells at G2/M phase at 8 uM after 72 hrs by RNAse/propidium iodide staining based flow cytometry (reference value: 25.6%); format: functional
CCRF-CEM [12] = assay: Cell cycle arrest in human CCRF-CEM cells assessed as accumulation of cells at G1/G0 phase at 8 uM after 48 hrs by RNAse/propidium iodide staining based flow cytometry (reference value: 28.3%); format: functional
CCRF-CEM [13] = assay: Induction of apoptosis in human CCRF-CEM cells assessed as necrotic cells at 8 uM after 48 hrs by Annexin V/propidium iodide staining based flow cytometry (reference value: 0.11%); format: functional
CCRF-CEM [14] = assay: Induction of apoptosis in human CCRF-CEM cells assessed as early apoptotic cells at 2 uM after 72 hrs by Annexin V/propidium iodide staining based flow cytometry (reference value: 0.87%); format: functional
[15] = target: MAP kinase p38 (Homo sapiens) (UniProt O15264+Q15759+Q16539+P53778); assay: Activation of p38 in human CCRF-CEM cells assessed as increase in phosphorylated p38 level at 8 uM incubated for 1 to 6 hrs by Western blot analysis; format: cell-based
CCRF-CEM [16] = assay: Induction of apoptosis in human CCRF-CEM cells assessed as viable cells at 16 uM after 72 hrs by Annexin V/propidium iodide staining based flow cytometry (reference value: 90.4%); format: functional; conditions: read-out: Activity
CCRF-CEM [17] = assay: Induction of apoptosis in human CCRF-CEM cells assessed as increase in Bax level at 8 uM by Western blot analysis; format: functional, cell-based; conditions: TDE = time-dependent effect
CCRF-CEM [18] = assay: Induction of apoptosis in human CCRF-CEM cells assessed as early apoptotic cells at 16 uM after 72 hrs by Annexin V/propidium iodide staining based flow cytometry (reference value: 0.87%); format: functional
CCRF-CEM [19] = assay: Induction of apoptosis in human CCRF-CEM cells assessed as late apoptotic cells at 4 uM after 72 hrs by Annexin V/propidium iodide staining based flow cytometry (reference value: 8.60%); format: functional
CCRF-CEM [20] = assay: Induction of apoptosis in human CCRF-CEM cells assessed as early apoptotic cells at 8 uM after 72 hrs by Annexin V/propidium iodide staining based flow cytometry (reference value: 0.87%); format: functional
CCRF-CEM [21] = assay: (§1) Induction of apoptosis in human CCRF-CEM cells assessed as necrotic cells at 8 uM after 72 hrs by Annexin V/propidium iodide staining based flow cytometry (reference value: 0.11%); format: functional
CCRF-CEM [22] = assay: Induction of apoptosis in human CCRF-CEM cells after 72 hrs by Annexin V-FITC/propidium iodide staining based flow cytometry; format: functional, cell-based
CCRF-CEM [23] = assay: Induction of apoptosis in human CCRF-CEM cells assessed as late apoptotic cells at 2 uM after 72 hrs by Annexin V/propidium iodide staining based flow cytometry (reference value: 8.60%); format: functional
CCRF-CEM [24] = assay: Cell cycle arrest in human CCRF-CEM cells assessed as accumulation of cells at sub G1 phase at 8 uM after 72 hrs by RNAse/propidium iodide staining based flow cytometry (reference value: 0.1%); format: functional
CCRF-CEM [25] = assay: as §1; format: functional; remark: listed apart in the source
[26] = target: c-Jun N-terminal kinase, JNK (Homo sapiens) (UniProt P45983+P53779+P45984); assay: Activation of JNK in human CCRF-CEM cells assessed as increase in JNK level at 8 uM incubated for 1 to 6 hrs by Western blot analysis; format: cell-based
CCRF-CEM [27] = assay: Induction of apoptosis in human CCRF-CEM cells assessed as decrease in Bcl-2 level after 72 hrs by western blot analysis; format: functional, cell-based

For `O=[N+]([O-])c1ccc(O/N=[N+](\[O-])N2CCC(CN3CCN(/[N+]([O-])=N/Oc4ccc([N+](=O)[O-])cc4[N+](=O)[O-])CC3)CC2)c([N+](=O)[O-])c1`, the Activity (CCRF-CEM [1]) was 49.8%, the Activity (CCRF-CEM [2]) was 3.5% and the Activity (CCRF-CEM [3]) was “Tde”. For the same compound, the Activity (CCRF-CEM [4]) was 24.5%, the viability at 8 µM (CCRF-CEM [5]) was 65% and the Activity (CCRF-CEM [6]) was 27.9%. It also gave an Activity (CCRF-CEM [7]) of 7.03%, an Activity (CCRF-CEM [8]) of 52.5% and an Activity (CCRF-CEM [9]) of 95.6%. It also gave an Activity (CCRF-CEM [10]) of 0%, an Activity (CCRF-CEM [11]) of 63.7% and an Activity (CCRF-CEM [12]) of 28.9%. The Activity (CCRF-CEM [13]) was 0.058%, the Activity (CCRF-CEM [14]) was 3% and the Activity [15] was “Active”. For the same compound, the viability at 16 µM (CCRF-CEM [16]) was 0.63%, the Activity (CCRF-CEM [17]) was “Tde” and the Activity (CCRF-CEM [18]) was 3.64%. For the same compound, the Activity (CCRF-CEM [19]) was 10.6%, the Activity (CCRF-CEM [20]) was 4.93% and the Activity (CCRF-CEM [21]) was 0.11%. The Activity (CCRF-CEM [22]) was “Dose-dependent effect”, the Activity (CCRF-CEM [23]) was 9.53% and the Activity (CCRF-CEM [24]) was 7.5%. For the same compound, the Activity (CCRF-CEM [25]) was 0.077%, the Activity [26] was “Active” and the Activity (CCRF-CEM [27]) was “Dose-dependent effect”.
